The values below come from BindingDB's records for patent US20240158355 (Baylor College of Medicine, 2024).

Each structure is given as a SMILES string.

Test [1] deals with T1, Bromodomain testis-specific protein [287-359] (Homo sapiens, UniProt Q58F21).
T1 construct: 287-359
Kind of test: AlphaScreen Assay. The text has this:
(§1) No details are given.

For test [2], the target named is T2, Bromodomain testis-specific protein [44-116] (UniProt Q58F21).
T2 construct: 44-116
Kind of test: AlphaScreen Assay.
Text: as §1

Regarding `Cc1cc(N)ccc1-c1nn(C)c2ccc(-c3cncnc3)cc12` [US20240158355, Compound 76], the values for the IC50 in test [1] and in test [2] were 9.48 µM and 5.44 µM, respectively.
